Source: publication PMC8538783, “Green Oxidation of Amines by a Novel Cold-Adapted Monoamine Oxidase MAO P3 from Psychrophilic Fungi Pseudogymnoascus sp. P3” (Molecules, 2021)
Several values for one entry are separate records, joined by “and”; a condition that tells them apart may be missing. Identical values can stand only once. Like-named read-outs stand apart in the source and are kept apart here.

Experiments:
native MAO N = conditions: cited from earlier work
MAO P3 [1] = test: Effect of extra FAD in the reaction mixture on MAO P3 activity; format: biochemical, Pseudogymnoascus sp. P3; conditions: 0.2 mM FAD in reaction mixture, compared to holoenzyme without supplementation of FAD
Description: (§1) The activity of MAO P3 was measured by a colorimetric method which is based on the formation of orange-brownish tetraguaiacol in the presence of H2O2 and peroxidase (insert in Figure 2A). The reaction mixture contained 0.5 mL of the enzyme sample, 0.25 mL of 10 mM potassium phosphate buffer pH 7.2, 0.25 mL of 20 mM amine substrate (to identify a potential MAO producer, primary–n-butylamine, and secondary–6,6-dimethyl-3-azabicyclohexane, amines were used), 0.02 mL of peroxidase (90 U/mL), and 0.4 mL of 0.02 M guaiacol (all reagents from MerckMillipore, Burlington, MA, USA). The reaction mixture was incubated at 30 °C for 30 min.
Reconstruction of flavoprotein MAO P3 was carried out in 10 mM potassium phosphate buffer pH 7.2 in a total volume of 5 mL, with different conditions of: FAD concentration (5, 10, 15, 20, 25, and 50 μM), temperature (5, 10, 15, 20, 25, and 30 °C), and time of incubation (from 10 min to 60 min). After incubation, extra FAD was removed by centrifugation at 5000 rpm, 4 °C, 20 min in Centricon concentrators of MWCO of 10 kDa (MerckMillipore, Burlington, MA, USA). The absorption spectrum was measured on a flat-bottom 96-well plate on a MultiScanGo plate reader (ThermoFisher Scientific, Waltham, MA, USA).

MAO P3 [2] = test: Substrate specificity (Vmax, Km) of purified MAO P3, GC-MS; format: biochemical, Pseudogymnoascus sp. P3
Description: (§2) Substrate specificity of MAO P3 was examined towards sixteen amine substrates (listed in Table 3) that differed in the number of carbons and various substitutions. Bioconversion was carried out in 5 mL glass tubes (Schott, Germany), where the total volume of the reaction was 2.5 mL and was comprised of 1 mL of MAO P3 (1 U/mL), where the cell-free extracts were used for the initial oxidation screening and the purified enzyme, for substrate specificity. An amount of 0.75 mL of a substrate (in the range of concentrations between 10 and 100 mM) was resuspended in 0.1 M potassium phosphate pH 7.2, and 0.75 mL of 10 mM potassium phosphate buffer pH 7.2. Initial oxidation screening was carried out for 4 h at 30 °C, 810 rpm. The substrate specificity was measured at 30 °C; reactions were carried out for 5 h, 810 rpm. In order to analyze the products of the bioconversion, samples were first neutralized by the addition of 0.25 mL of 1 M NaOH. An amount of 0.5 mL of dichloromethane was added to samples and incubated at room temperature with shaking for 1 min. The samples were centrifuged for 5 min, 5000 rpm, 4 °C. The organic phase was collected for the gas chromatography-mass spectrometry (GC-MS) analysis. The Km values were calculated based on […] curves (see the Supplementary Materials).
(§3) GC-MS analyses were carried out on a Pegasus 4D (LECO, USA) apparatus, equipped with an Agilent 6890N gas chromatograph coupled with a time-of-flight mass spectrometer (LECO, Saint Joseph, MI, USA). Samples were injected with the GerstelMultiPurpose sampler (MPS 2). The GC was fitted with a BPX5 capillary column of 30 m × 0.25 mm × 0.25 µm (SGE). Helium was used as a carrier gas with a flow rate of 1.5 mL/min. The injector temperature was held at 250 °C. The oven temperature was initially held at 40 °C for 2 min, ramped up to 200 °C by 10 °C/min; the total run time was 20 min. The detector was operated in EI mode with the transfer line maintained at 280 °C. All substrates were purchased from MerckMillipore, USA, and quantified by GC analysis based on their peak areas and calibration curves prepared for each individual. GC-MS spectra are presented in the Supplementary Materials.
Method S3. Determination of Km and Vmax values based on Lineweaver-Burk curves
The double-reciprocal curve was create based on the inverse initial velocity as a function of the inverse substrate
concentration. Curves were created for each amine substrate (Fig. S2), based on the results of GC-MS analysis (Paragraph
Figure S4. The double-reciprocal curves for MAO P3 amines substrates: A. 3-azabicyclo[3.3.0]octane;
B. hexamethyleneimine; C. 6,6-dimethyl-3-azabicyclohexane; D. cyclopentylamine; E. α-methylbenzylamine;
F. pyrrolidine; G. sec-butylamine; H. indoline.
(1 picture or pasted object on this page, not shown here)

MAO P3 [3] = test: Initial oxidation screening: bioconversion of amine substrates by cell-free extract, GC-MS; format: biochemical, Pseudogymnoascus sp. P3; conditions: for Rate of Oxidation: 10 mM substrate, 10 mM potassium phosphate buffer pH 7.2, cell-free intracellular extract of P3 strain, 4 h at 30 °C, relative to compound 9 = 100%
Description: as §2
as §3, with “Samples” for “GC-MS analyses were carried out on a Pegasus 4D (LECO, USA) apparatus, equipped with an Agilent 6890N gas chromatograph coupled with a time-of-flight mass spectrometer (LECO, Saint Joseph, MI, USA). Samples”, “The GC was fitted with a BPX5 capillary column of 30 m × 0.25 mm × 0.25 µm (SGE).” left out

MAO P3 [4] = test: as above; format: biochemical, Pseudogymnoascus sp. P3; conditions: 24 h of incubation at 30 °C with shaking
MAO N (N338S, M348K) = system: MAO N (N338S, M348K); parameters: method as in PMID 12207381; conditions: MAO N with two point mutations (N338S, M348K); cited from earlier work
MAO = test: Colorimetric MAO activity assay of intracellular protein extract of P3 strain; format: biochemical, Pseudogymnoascus sp. P3; conditions: 30 °C, 30 min
Description: as §1
The absorbance of the samples was measured at 436 nm on the UV/visible spectrophotometer (UV-1800 Shimatdsu, Kyoto, Japan). A unit of enzyme activity was defined as the amount of enzyme that catalyzes the formation of 1.0 μmol of H2O2 per min.
Figure 2 MAO biosynthesis in 14 psychrophilic fungi strains. The activity was measured towards a primary amine (n-butylamine) and a secondary amine (6,6-dimethyl-3-azabicyclohexane), for each substrate. The reaction was carried out at 30 °C for 30 min with continuous shaking in 10 mM potassium phosphate buffer […]. (A) Activity after the growth in the induction medium, without inoculation from a solid culture; insert: scheme of the measurement of MAO activity in psychrophilic fungi strains; absorbance of tetraguaiacol is measured at 436 nm. (B) Activity after the growth in the induction medium, with inoculation from a solid culture.

MAO N D5 = system: MAO N D5; parameters: method as in PMID 20146293; conditions: recombinant MAO N D5; cited from earlier work
MAO P3 [5] = test: Inhibition analysis of MAO P3 by clorgyline, colorimetric guaiacol/peroxidase assay; format: biochemical, Pseudogymnoascus sp. P3; conditions: preincubated 30 min at 30 °C; substrate 6,6-dimethyl-3-azabicyclohexane
Description: The enzyme was preincubated with different concentrations (from 0.1 to 10^−8 mM) of clorgyline (MerckMillipore, Burlington, MA, USA) for 30 min at 30 °C. MAO P3 activity was measured according to the above-mentioned procedure. Clorgyline solution (1 mM) was prepared in 10 mM potassium phosphate buffer pH 7.2.

MAO A = system: MAO A; parameters: method as in PMID 11134050; conditions: cited from earlier work
Pseudogymnoascus sp. P3 = format: cell-based
Description: The 125 mL cultures were inoculated from the glycerol stocks. The strains were cultured at 20 °C for 14 days with shaking at 100 rpm in 0.5 L flasks. The growth medium was composed of 3% (w/v) glucose, 0.1% (w/v) KH2PO4, 0.05% (w/v) MgSO4, 0.05% (w/v) KCl, and 0.1% (w/v) NaNO3, which was replaced by 0.1% (v/v) of n-butylamine (MAO inducer) in the induction medium. The concentration of n-butylamine was optimized (tested concentrations: 0.01, 0.03, 0.05, 0.10, 0.15, 0.20, and 0.50%) to maximize the biosynthesis of MAO. The mycelium was collected by filtration, wet mass was weighed and used for further experiments.
as §1

[6] = purified MAO P3 1 U/mL, 0.1 M potassium phosphate buffer pH 7.2, 30 °C
[7] = induction medium inoculated from glycerol stock (no solid preculture)
[8] = inoculation from solid culture (7 days, 20 °C)

## NCCc1ccccc1 [2-phenethylamine]
Native MAO N
  Km: 100 µM

## Cc1cc2nc3c(=O)[nH]c(=O)nc-3n(C[C@H](O)[C@H](O)[C@H](O)COP(=O)(O)OP(=O)(O)OC[C@H]3O[C@@H](n4cnc5c(N)ncnc54)[C@H](O)[C@@H]3O)c2cc1C [FAD, flavin adenine dinucleotide]
MAO P3 [1]
  change of MAO P3 activity: increased two-fold

## CCC(C)N (centres unmarked) [Substrate 1, sec-butylamine]
MAO P3 [2]; [6]
  Km: 18 mM
  Vmax: 0.17 mM/h
MAO P3 [3]
  Rate of Oxidation: 29%

## NC1CCCC1 [Substrate 2, cyclopentylamine]
MAO P3 [2]; [6]
  Km: 8.22 mM
  Vmax: 0.47 mM/h
MAO P3 [3]
  Rate of Oxidation: 31%

## C1CCNC1 [Substrate 3, pyrrolidine]
MAO P3 [2]; [6]
  Km: 14.3 mM
  Vmax: 0.16 mM/h
MAO P3 [3]
  Rate of Oxidation: 36%

## CN1CCCC1 [Substrate 4, 1-methylpyrrolidine]
MAO P3 [4]
  conversion by MAO P3 after prolonged incubation (in words): unconverted
MAO P3 [3]
  oxidation/conversion by MAO P3 (in words): no activity
  Rate of Oxidation: 0%

## CC(N)c1ccccc1 (stereo not drawn) [Substrate 5, α-methylbenzylamine]
MAO P3 [2]; [6]
  Km: 4.1 mM and 4.13 mM
  Vmax: 0.27 mM/h
Native MAO N
  kcat: 0.17 min⁻¹
MAO N (N338S, M348K)
  Km: 400 µM
MAO P3 [3]
  Rate of Oxidation: 41%

## C1CCCNCC1 [Substrate 6, hexamethyleneimine]
MAO P3 [2]; [6]
  Km: 2.64 mM and 2.56 mM
  Vmax: 0.72 mM/h
MAO P3 [3]
  Rate of Oxidation: 30%

## O=C1NC2C=CC1C2 (centres unmarked) [Substrate 7, 2-azabicyclo[2.2.1]hept-5-en-3-one]
MAO P3 [3]
  Rate of Oxidation: 0%

## c1ccncc1 [Substrate 8, pyridine]
MAO P3 [3]
  Rate of Oxidation: 0%

## CC1(C)C2CNCC21 (centres unmarked) [Substrate 9, 6,6-dimethyl-3-azabicyclo[3.1.0]hexane]
MAO; [7]
  MAO activity towards the amine: 959 ± 7.2 U/L
MAO; [8]
  MAO activity towards the amine: 1470 ± 10.6 U/L
MAO P3 [2]; [6]
  Km: 2.4 mM
  Vmax: 1.1 mM/h
MAO P3 [3]
  Rate of Oxidation: 100%

## C1CC2CNCC2C1 (centres unmarked) [Substrate 10, 3-azabicyclo[3.3.0]octane]
MAO P3 [2]; [6]
  Km: 10.4 mM
  Vmax: 0.24 mM/h
MAO N D5
  rate of initial oxidation: 16%
MAO P3 [3]
  Rate of Oxidation: 67%

## C1CC[C@H]2CNC[C@H]2C1 [Substrate 11, cis-8-azabicyclo[4.3.0]nonane]
MAO P3 [4]
  conversion by MAO P3 after prolonged incubation (in words): unconverted
MAO N D5
  rate of initial oxidation: 19%
MAO P3 [3]
  Rate of Oxidation: 0%

## c1ccc2c(c1)CCN2 [Substrate 12, indoline]
MAO P3 [2]; pH 7.2
  Km: 20.4 mM
MAO P3 [2]; [6]
  Vmax: 0.14 mM/h
MAO P3 [3]
  Rate of Oxidation: 9%

## NCCN1CCCC1 [Substrate 13, 1-(2-aminoethyl)pyrrolidine]
MAO P3 [4]
  conversion by MAO P3 after prolonged incubation (in words): unconverted
MAO P3 [3]
  oxidation/conversion by MAO P3 (in words): no activity
  Rate of Oxidation: 0%

## NC(c1ccccc1)c1ccccc1 [Substrate 14, benzylhydrylamine]
MAO P3 [4]
  conversion by MAO P3 after prolonged incubation (in words): unconverted
MAO P3 [3]
  oxidation/conversion by MAO P3 (in words): not able to oxidize
  Rate of Oxidation: 0%

## NCCCCN [Substrate 15, putrescine]
MAO P3 [3]
  oxidation/conversion by MAO P3 (in words): not able to convert
  Rate of Oxidation: 0%

## NCCCCNCCCN [Substrate 16, spermidine]
MAO P3 [3]
  oxidation/conversion by MAO P3 (in words): not able to convert
  Rate of Oxidation: 0%

## CCCCCN [amylamine]
Native MAO N
  kcat: 1000 min⁻¹

## NCc1ccccc1 [benzylamine]
Native MAO N
  Km: 240 µM
  kcat: 371 min⁻¹

## C#CCN(C)CCCOc1ccc(Cl)cc1Cl [clorgyline]
MAO P3 [5]
  IC50: 18 nM
MAO A
  IC50: 1.2 nM
  low concentration that inhibits MAO A: 10^−8 M

## CCCCCCN [hexylamine]
Native MAO N
  Km: 200 µM

## CCCCN [n-butylamine]
Pseudogymnoascus sp. P3
  effect on the psychrophilic strains: acted deadly
Pseudogymnoascus sp. P3; 0.01% n-butylamine in induction medium
  Relative Activity of MAO P3: 6.4 ± 0.31%
Pseudogymnoascus sp. P3; 0.03% n-butylamine in induction medium
  Relative Activity of MAO P3: 19.9 ± 0.31%
Pseudogymnoascus sp. P3; 0.05% n-butylamine in induction medium
  Relative Activity of MAO P3: 30.7 ± 0.20%
Pseudogymnoascus sp. P3; 0.10% n-butylamine in induction medium
  Relative Activity of MAO P3: 100.0%
Pseudogymnoascus sp. P3; 0.15% n-butylamine in induction medium
  Relative Activity of MAO P3: 45.9 ± 0.34%
Pseudogymnoascus sp. P3; 0.20% n-butylamine in induction medium
  Relative Activity of MAO P3: 9.6 ± 0.20%
Pseudogymnoascus sp. P3; 0.50% n-butylamine in induction medium
  Relative Activity of MAO P3: 0.0%
MAO; [7]
  MAO activity towards the amine: 910 ± 4.8 U/L
MAO; [8]
  MAO activity towards the amine: 1350 ± 10.5 U/L
Native MAO N
  Km: 600 µM

## CCCN [propylamine]
Native MAO N
  Km: 1600 µM
